# Test results as given in US20240173344A1, “USE OF GABAA RECEPTOR AS TARGET IN PREPARATION OR SCREENING OF DRUG FOR LOWERING BLOOD LIPID LEVEL, TREATING OBESITY, AND/OR IMPROVING METABOLISM” (SHANGHAI INSTITUTE OF ENDOCRINE AND METABOLIC DISEASES, priority 2022, published 2024).
# Where “and” joins values, the source holds several entries; their conditions need not be identical. Equal entries are not always repeated.
# How the values were obtained:
# [1] = tested on: obese mouse model; experiment: Intraperitoneal puerarin for 20 d in high-fat-diet obese mouse model: body weight, blood lipid, jejunal TG, c-fos staining, oil red O staining; assay type: in vivo, C57BL/6J mice; conditions: brain slice c-fos immunofluorescence, puerarin i.p. 20 d vs control group
# Protocol: The C57BL/6J mice were used as experimental mice in the present disclosure. The experimental mice each were raised in an SPF-level environment at 22° C. to 24° C. with a 12:12 circadian rhythm, and the experimental mice each were subjected to anaesthesia, analgesia, surgery, intraperitoneal injection, and other experimental operations in accordance with the relevant provisions of animal ethics.
# In the present disclosure, the mice were fed with a high-fat diet in which a mass percentage of fat was 60% for 12 weeks, and when a body weight reached 35 g or more, animal models of alimentary obesity were successfully constructed. At a formal stage of the experiment (starting on day 0 in FIG. 1A, FIG. 3A, FIG. 6A, and FIG. 7A), the mice were raised in single cages, during which a daily food intake of each mouse model was accurately recorded, the feces was collected before and after drug intervention, and a daily body weight curve was recorded.
# A method for determining TG in a sample was as follows: 20 mg to 30 mg of a sample was first weighed, a 5% NP40-containing lysis buffer was added, and a resulting mixture was homogenated and incubated in a metal bath at 95° C. for 5 min, which was repeated twice. […] 2 μl of the supernatant was added to each well, and after a chromogenic reaction was completed, a value of each well was determined by a microplate reader. […]
# [2] = target: T1, α1 subunit of the GABAA receptor (Gabra1) in the DMV (Mus musculus, UniProt P22723+P62812); experiment: DMV-specific knockdown of Gabra1 to block puerarin in obese mouse model: body weight, blood lipid, jejunal TG, c-fos; assay type: in vivo, mice; conditions: for Body weight curve change percentage: single mice and mean
# T1 construct: from tissue; host or cells: brainstem DMV of living obese mice
# [3] = target: T2, γ2 subunit of the GABAA receptor (Gabrg2) in the DMV (Mus musculus, UniProt P22723+P62812); experiment: DMV-specific knockdown of Gabrg2 to block puerarin in obese mouse model: body weight, blood lipid, jejunal TG, c-fos; assay type: in vivo, mice; conditions: for Body weight curve change percentage / Jejunal TG level / Blood lipid level: single mice and mean
# T2 construct: from tissue; host or cells: brainstem DMV of living obese mice
# Protocol: A method for determining TG in a sample was as follows: 20 mg to 30 mg of a sample was first weighed, a 5% NP40-containing lysis buffer was added, and a resulting mixture was homogenated and incubated in a metal bath at 95° C. for 5 min, which was repeated twice. A resulting homogenate was cooled to room temperature and then centrifuged at 15,000 rpm for 2 min to 3 min, and a resulting supernatant was pipetted for determination. A Biovision kit was used to determine TG. 2 μl of the supernatant was added to each well, and after a chromogenic reaction was completed, a value of each well was determined by a microplate reader. TG in the small intestinal tissue was quantified through a standard protein concentration; and a total amount of lipids excreted with the feces was calculated based on a measured value of the feces sample and a total mass of the sample at 24 h.
# Similar to the above experiment, the rAAV-DIO-Gabrg2-shRNA (BrainVTA, China) was used to knock down Gabrg2 (a gene encoding the γ2 subunit of the GABAA receptor) in the DMV in an obese mouse model, and the rAAV-DIO-mCherry (BrainVTA, China) was used as a control group.
# [4] = tested on: neurons in the DMV; experiment: Electrophysiological whole-cell patch-clamp recording of brain slices; assay type: cell-based; conditions: during puerarin incubation (concentration: 10 mM), current clamp, brain slices of obese mice
# Protocol: Obese mouse models fed with a high-fat feed for 12 weeks were taken and myocardially perfused with an artificial cerebrospinal fluid (ACSF), and 200 μm to 300 μm-thick brainstem tissue slices were prepared by vibration slicing; and brain slices were incubated in oxygen at 35° C. for 1 h and then transferred to a patch-clamp system for whole-cell patch-clamp recording. Recorded neurons were selected according to the cellular morphology in the DMV, and a green-fluorescent dye was added to a pipette solution to label cells.
# [5] = target: T3, GABAA receptor in the DMV (Mus musculus, UniProt P22723+P62812); experiment: Colocalization staining of puerarin probe with GABAA receptor on brain slices; conditions: brain slice tissue, immunofluorescence staining
# T3 construct: from tissue; host or cells: brain slice tissue (DMV)
# [6] = target: T4, GABAA (α1β3γ2) receptor (Homo sapiens, UniProt P14867+P18507); experiment: Bioelectric signal of 293S cell line with GABA and puerarin co-incubation; assay type: cell-based; conditions: 0.5 μM GABA co-incubated with puerarin for 3 min to 5 min
# T4 construct: expressed in transfected cells
# [7] = Puerarin group (control virus in DMV, puerarin i.p. daily), Day 0 baseline
# [8] = Puerarin group vs control group
# [9] = Puerarin group (control virus, puerarin i.p. 7 d)
# [10] = Puerarin group (control virus, puerarin i.p. 7 d), mean
# T2 sequence (P22723 39-474): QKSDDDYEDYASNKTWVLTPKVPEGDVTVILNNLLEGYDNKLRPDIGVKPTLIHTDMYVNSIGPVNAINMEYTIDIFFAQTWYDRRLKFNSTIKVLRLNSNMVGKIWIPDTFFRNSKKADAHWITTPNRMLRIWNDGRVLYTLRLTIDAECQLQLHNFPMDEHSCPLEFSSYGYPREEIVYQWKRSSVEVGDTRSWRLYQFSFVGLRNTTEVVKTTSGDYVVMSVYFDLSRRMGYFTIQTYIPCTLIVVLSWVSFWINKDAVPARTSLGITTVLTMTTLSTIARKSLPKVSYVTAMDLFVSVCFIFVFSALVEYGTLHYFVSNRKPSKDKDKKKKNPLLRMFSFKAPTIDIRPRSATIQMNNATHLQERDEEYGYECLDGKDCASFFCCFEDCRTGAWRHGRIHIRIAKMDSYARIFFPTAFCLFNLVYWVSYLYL
# T2 sequence (P62812 28-455): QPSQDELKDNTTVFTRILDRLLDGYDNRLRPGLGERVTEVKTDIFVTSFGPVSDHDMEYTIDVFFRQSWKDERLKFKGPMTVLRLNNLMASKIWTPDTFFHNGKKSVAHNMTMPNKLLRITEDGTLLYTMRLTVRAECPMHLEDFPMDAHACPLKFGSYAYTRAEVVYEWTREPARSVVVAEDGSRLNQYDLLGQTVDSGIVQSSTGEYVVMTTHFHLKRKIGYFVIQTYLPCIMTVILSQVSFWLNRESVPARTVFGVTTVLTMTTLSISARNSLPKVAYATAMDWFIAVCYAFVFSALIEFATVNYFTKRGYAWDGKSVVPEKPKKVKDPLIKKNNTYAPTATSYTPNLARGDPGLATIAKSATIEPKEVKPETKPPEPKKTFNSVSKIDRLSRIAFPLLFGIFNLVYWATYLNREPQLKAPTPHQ
# T2 sequence (P63080 26-473 partner): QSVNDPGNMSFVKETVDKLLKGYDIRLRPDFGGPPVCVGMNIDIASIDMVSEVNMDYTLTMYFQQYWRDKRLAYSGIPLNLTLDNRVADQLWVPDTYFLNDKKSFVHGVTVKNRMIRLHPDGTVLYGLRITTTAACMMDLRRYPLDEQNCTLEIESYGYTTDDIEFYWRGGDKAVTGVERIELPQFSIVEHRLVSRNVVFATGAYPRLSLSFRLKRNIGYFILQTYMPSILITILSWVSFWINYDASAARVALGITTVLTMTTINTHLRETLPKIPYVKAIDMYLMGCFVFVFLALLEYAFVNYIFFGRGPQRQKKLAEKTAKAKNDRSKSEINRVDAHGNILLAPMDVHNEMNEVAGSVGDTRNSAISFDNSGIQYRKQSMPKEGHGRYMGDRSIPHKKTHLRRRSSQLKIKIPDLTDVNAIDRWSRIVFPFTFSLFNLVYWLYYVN
# T1 sequence (P62812 28-455): as the sequence (P62812 28-455) above
# T1 sequence (P63080 26-473 partner): as the sequence (P63080 26-473 partner) above
# T1 sequence (P22723 39-474): as the sequence (P22723 39-474) above
# T4 sequence (P14867 28-456): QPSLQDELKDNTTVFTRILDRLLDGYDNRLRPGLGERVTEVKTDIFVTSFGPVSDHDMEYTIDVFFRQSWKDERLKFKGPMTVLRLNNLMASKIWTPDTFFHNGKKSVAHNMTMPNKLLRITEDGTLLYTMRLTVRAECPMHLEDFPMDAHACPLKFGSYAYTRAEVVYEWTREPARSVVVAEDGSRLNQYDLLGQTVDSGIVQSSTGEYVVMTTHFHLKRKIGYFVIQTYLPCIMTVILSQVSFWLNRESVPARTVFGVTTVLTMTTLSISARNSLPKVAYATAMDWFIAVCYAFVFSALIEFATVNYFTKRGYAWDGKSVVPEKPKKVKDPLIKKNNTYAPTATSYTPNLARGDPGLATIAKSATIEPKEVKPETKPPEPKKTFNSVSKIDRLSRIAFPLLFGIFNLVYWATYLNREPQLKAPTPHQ
# T4 sequence (P28472 26-473 partner): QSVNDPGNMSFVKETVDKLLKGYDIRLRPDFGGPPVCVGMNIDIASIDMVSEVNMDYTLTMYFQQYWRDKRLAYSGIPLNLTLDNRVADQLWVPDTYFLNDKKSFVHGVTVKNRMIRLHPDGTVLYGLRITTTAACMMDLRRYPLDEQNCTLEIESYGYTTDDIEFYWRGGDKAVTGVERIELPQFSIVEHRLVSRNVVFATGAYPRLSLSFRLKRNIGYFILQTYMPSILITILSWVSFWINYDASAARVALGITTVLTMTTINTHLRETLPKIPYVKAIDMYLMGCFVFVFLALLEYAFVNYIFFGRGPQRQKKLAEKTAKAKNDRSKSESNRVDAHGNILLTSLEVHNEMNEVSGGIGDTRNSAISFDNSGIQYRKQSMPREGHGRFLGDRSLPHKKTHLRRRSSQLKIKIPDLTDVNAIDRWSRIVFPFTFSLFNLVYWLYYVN
# T4 sequence (P18507 40-475): as the sequence (P22723 39-474) above
# T3 sequence (P62812 28-455): as the sequence (P62812 28-455) above
# T3 sequence (P63080 26-473 partner): as the sequence (P63080 26-473 partner) above
# T3 sequence (P22723 39-474): as the sequence (P22723 39-474) above
smiles,measurement,setting,value
"O=c1c(-c2ccc(O)cc2)coc2c([C@@H]3O[C@H](CO)[C@@H](O)[C@H](O)[C@H]3O)c(O)ccc12 [Puerarin, puerarin]",Number of c-fos fluorescence signals in the DMV brain region,[1],smaller than that in the control group
same,Body weight curve change percentage,"[2]; Gα1 blocking group (Gabra1 shRNA virus in DMV, puerarin i.p. daily), Day 0 baseline",0.00%
same,Body weight curve change percentage,"[2]; Gα1 blocking group (Gabra1 shRNA virus, puerarin i.p. daily), Day 2",0.70% and 0.68% and 0.80% and 0.69% and 1.06% and 0.91% and 0.82% and 0.83%
same,c-fos staining of brain slices (DMV),"[2]; Gα1 blocking group (tissue-specific knockdown of Gabra1, puerarin i.p.)",would intervene in the inhibitory effect of puerarin on neurons in the DMV
same,Body weight curve change percentage,[2]; [7],0.00%
same,c-fos staining of brain slices (DMV),[2]; [8],less than that of the control group
same,Body weight curve change percentage,"[3]; Gγ2 blocking group (Gabrg2 shRNA virus in DMV, puerarin i.p. daily), Day 0 baseline",0.00%
same,Jejunal TG level,"[3]; Gγ2 blocking group (Gabrg2 shRNA virus, puerarin i.p. 7 d)",1.1912 μmol/mg/protein and 1.5075 μmol/mg/protein and 1.6522 μmol/mg/protein and 1.1566 μmol/mg/protein and 1.0093 μmol/mg/protein
same,Jejunal TG level,"[3]; Gγ2 blocking group (Gabrg2 shRNA virus, puerarin i.p. 7 d), mean",1.3034 μmol/mg/protein
same,Body weight curve change percentage,"[3]; Gγ2 blocking group (Gabrg2 shRNA virus, puerarin i.p. daily), Day 1",0.82% and 0.55% and −0.82% and −0.55% and 0.79%
same,Body weight curve change percentage,"[3]; Gγ2 blocking group (Gabrg2 shRNA virus, puerarin i.p. daily), Day 1, mean",0.16%
same,Body weight curve change percentage,"[3]; Gγ2 blocking group (Gabrg2 shRNA virus, puerarin i.p. daily), Day 2",1.37% and −0.28% and 0.27% and 0.54% and −0.81%
same,Body weight curve change percentage,"[3]; Gγ2 blocking group (Gabrg2 shRNA virus, puerarin i.p. daily), Day 2, mean",0.22%
same,Body weight curve change percentage,"[3]; Gγ2 blocking group (Gabrg2 shRNA virus, puerarin i.p. daily), Day 3",0.55% and −1.13% and 0.54% and 1.08% and 1.57%
same,Body weight curve change percentage,"[3]; Gγ2 blocking group (Gabrg2 shRNA virus, puerarin i.p. daily), Day 3, mean",0.52%
same,Body weight curve change percentage,"[3]; Gγ2 blocking group (Gabrg2 shRNA virus, puerarin i.p. daily), Day 4",0.28% and −1.41% and 0.80% and 1.60% and 1.06%
same,Body weight curve change percentage,"[3]; Gγ2 blocking group (Gabrg2 shRNA virus, puerarin i.p. daily), Day 4, mean",0.47%
same,Body weight curve change percentage,"[3]; Gγ2 blocking group (Gabrg2 shRNA virus, puerarin i.p. daily), Day 5",0.55% and −0.56% and 2.62% and 3.41% and 0.79%
same,Body weight curve change percentage,"[3]; Gγ2 blocking group (Gabrg2 shRNA virus, puerarin i.p. daily), Day 5, mean",1.36%
same,Body weight curve change percentage,"[3]; Gγ2 blocking group (Gabrg2 shRNA virus, puerarin i.p. daily), Day 6",0.55% and −0.56% and 2.62% and 3.41% and 1.83%
same,Body weight curve change percentage,"[3]; Gγ2 blocking group (Gabrg2 shRNA virus, puerarin i.p. daily), Day 6, mean",1.57%
same,Body weight curve change percentage,"[3]; Gγ2 blocking group (Gabrg2 shRNA virus, puerarin i.p. daily), Day 7",0.82% and 0.00% and 2.37% and 3.16% and 2.09%
same,Body weight curve change percentage,"[3]; Gγ2 blocking group (Gabrg2 shRNA virus, puerarin i.p. daily), Day 7, mean",1.69%
same,c-fos staining signal of neurons in the DMV,"[3]; Gγ2 blocking group (tissue-specific knockdown of Gabrg2, puerarin i.p.)",could intervene in the inhibitory effect of puerarin on neurons in the DMV
same,Body weight curve change percentage,[3]; [7],0.00%
same,Blood lipid level,[3]; [9],0.6408 mM and 0.7143 mM and 0.8673 mM and 0.7337 mM and 0.7380 mM
same,Jejunal TG level,[3]; [9],0.9191 μmol/mg/protein and 0.8860 μmol/mg/protein and 0.8466 μmol/mg/protein and 0.9139 μmol/mg/protein and 0.7516 μmol/mg/protein
same,Blood lipid level,[3]; [10],0.7388 mM
same,Jejunal TG level,[3]; [10],0.8634 μmol/mg/protein
same,Body weight curve change percentage,"[3]; Puerarin group (control virus, puerarin i.p. daily), Day 1",−1.10% and −1.06% and −0.81% and −0.79% and 0.82%
same,Body weight curve change percentage,"[3]; Puerarin group (control virus, puerarin i.p. daily), Day 1, mean",−0.59%
same,Body weight curve change percentage,"[3]; Puerarin group (control virus, puerarin i.p. daily), Day 2",−0.82% and −1.60% and −0.81% and −1.06% and −1.11%
same,Body weight curve change percentage,"[3]; Puerarin group (control virus, puerarin i.p. daily), Day 2, mean",−1.08%
same,Body weight curve change percentage,"[3]; Puerarin group (control virus, puerarin i.p. daily), Day 3",−2.50% and −0.53% and −2.20% and −1.33% and −1.68%
same,Body weight curve change percentage,"[3]; Puerarin group (control virus, puerarin i.p. daily), Day 3, mean",−1.65%
same,Body weight curve change percentage,"[3]; Puerarin group (control virus, puerarin i.p. daily), Day 4",−3.07% and −2.14% and −2.76% and −1.87% and −0.83%
same,Body weight curve change percentage,"[3]; Puerarin group (control virus, puerarin i.p. daily), Day 5",−4.83% and −2.97% and −1.64% and −5.20%
same,Body weight curve change percentage,"[3]; Puerarin group (control virus, puerarin i.p. daily), Day 5, mean",−3.52%
same,Body weight curve change percentage,"[3]; Puerarin group (control virus, puerarin i.p. daily), Day 6",−5.13% and −4.10% and −3.05% and −5.54% and −3.41%
same,Body weight curve change percentage,"[3]; Puerarin group (control virus, puerarin i.p. daily), Day 6, mean",−4.24%
same,Body weight curve change percentage,"[3]; Puerarin group (control virus, puerarin i.p. daily), Day 7",−6.34% and −4.96% and −3.33% and −5.54% and −3.41%
same,Body weight curve change percentage,"[3]; Puerarin group (control virus, puerarin i.p. daily), Day 7, mean",−4.72%
same,c-fos staining signal of neurons in the DMV,[3]; [8],inhibited by puerarin
same,Action potential discharge frequency of neurons in the DMV,[4],significantly reduced
same,Membrane potential of neurons in the DMV,[4],slightly lower than the initial baseline
same,Distribution of puerarin probe and colocalization with GABAA receptor staining,[5],enriched in the DMV and showed prominent colocalization with staining of the GABAA receptor
same,Chloride influx / bioelectric signal change,[6],"increased chloride ions would enter cells, causing hyperpolarization"
